The subject of assay [1] is human non-small cell lung cancer cell (A549). Put plainly: In vitro darktoxicity and PDT killing effect (CCK-8), A549. It counts as cell-based. From the text:
(§1) Human non-small cell lung cancer cellA549 and mice melanoma cell B16-F10 provided by Cell bank of Shanghai in Chinese Academy of Sciences were selected as cell strains.
(§2) 660 nm semiconductor laser therapeutic equipments manufactured by Baifei biomedical company of Shanghai was selected as a laser light source, with the largest output power of 2 W.
(§3) 1) Cell strains of tumors: culture of human non-small cell lung cancer cell (A549) and mice melanoma cell (B16-F10): frozen cells were taken out of liquid nitrogen, placed in a water bath at […]. […] The medium was renewed once every two days.
(§4) 2) Preparation of reagents: compounds of the present application to be tested and positive control drug Talaporfin were dissolved in a suitable amount of 0.1 M NaOH, adjusted pH to 7.4 by 0.1 M HCl. Normal saline was added to prepare drug stock solution in a suitable concentration.
(§5) 3) Detecting darktoxicity and PDT killing effects to the two tumor cells of compounds to be tested and positive control drug: 100 μL of 5×10^3/mL cell suspension was added into each well of 96-well plate, placed in a incubator at 37° C., 5% CO2 for 24 h. after removing cell medium, fresh mediums containing different concentration of samples were added, opened with three complex holes, and incubated for 24 h at 37° C. and 5% CO2 (volume concentration). After adding fresh medium, no light irradiated (darktoxicity) or 660 nm wavelength laser was used to irradiate (light dose was 8 J/cm^2) (phototoxicity). Cells were incubated for another 24 h. Cell medium containing drugs were removed and fresh medium was added. 200 μL medium containing 10% (v/v) CCK-8 (Dojindo Laboratories, Japan) was added into each well, and incubated for 1.5 h. Microplate reader (Tecan, Switzerland) was used to measure absorbance of each well at a wavelength of 450 nm.

The subject of assay [2] is mice melanoma cell (B16-F10). Put plainly: In vitro darktoxicity and PDT killing effect (CCK-8), B16-F10. In kind it is cell-based.
Source text: as §1, §2, §3, §4, §5

Setting [3] is: 660 nm laser, light dose 8 J/cm^2, read-out: Phototoxicity (IC50).
Where [4] appears, read: no light irradiated, 24 h drug incubation, read-out: Darktoxicity (IC50).

SMILES strings stand for the structures. Where two headings read alike, the source gives them in different places.

On to `CCC1=C(C)c2cc3[nH]c(cc4nc(c(CC(=O)N[C@@H](CC(=O)OC(C)(C)C)C(=O)OC(C)(C)C)c5[nH]c(cc1n2)c(C)c5C(=O)O)[C@@H](CCC(=O)O)[C@@H]4C)c(C)c3C(C)OCCOC` (stereo partly drawn) [I4, N-[3-[1-(2-methoxy)ethyoxyl]ethyl-3-devinylchlorine6-15^2-acyl]-L-aspartic acid di-tert-butyl ester], for which the “Ratio of Darktoxicity and Phototoxicity” value in assay [1] is listed as 255.18; in assay [2], 113.91. Further, the IC50 in assay [1] (setting [3]) was 1.17 µM; in assay [1] (setting [4]), 299 µM; in assay [2] (setting [3]), 1.61 µM; in assay [2] (setting [4]), 183 µM.
`CCC1=C(C)c2cc3[nH]c(cc4nc(c(CC(=O)N[C@@H](CCCCN)C(=O)O)c5[nH]c(cc1n2)c(C)c5C(=O)O)[C@@H](CCC(=O)O)[C@@H]4C)c(C)c3C(C)OCCOCCOC` (stereo partly drawn) [I26, N-[3-[1-(2-(2-methoxy)ethyoxyl)ethyoxyl]ethyl-3-devinylchlorine6-15^2-acyl]-L-lysine]: the “Ratio of Darktoxicity and Phototoxicity” value in assay [1] was 201.61; in assay [2] it was 105.20. Also, the IC50 turned out to be 1.23 µM in assay [1] (setting [3]), 248 µM in assay [1] (setting [4]), 1.67 µM in assay [2] (setting [3]) and 176 µM in assay [2] (setting [4]).
`C=Cc1c(C)c2cc3nc(c(CC(=O)N[C@@H](CC(=O)O)C(=O)O)c4[nH]c(cc5nc(cc1[nH]2)C(C)=C5CC)c(C)c4C(=O)O)[C@@H](CCC(=O)O)[C@@H]3C` [Talaporfin, reference compound]: the “Ratio of Darktoxicity and Phototoxicity” value was found to be 31.21 in assay [1] and 15.81 in assay [2]. Moreover, the IC50 in assay [1] (Homo sapiens, light or radiation study, 660 nm laser, light dose 8 J/cm^2, read-out: Phototoxicity (IC50)) was determined as 8.86 µM; in assay [1] (Homo sapiens, light or radiation study, no light irradiated, 24 h drug incubation, read-out: Darktoxicity (IC50)), 277 µM; in assay [2] (Mus musculus, light or radiation study, 660 nm laser, light dose 8 J/cm^2, read-out: Phototoxicity (IC50)) it was 10.7 µM; in assay [2] (Mus musculus, light or radiation study, no light irradiated, 24 h drug incubation, read-out: Darktoxicity (IC50)) it was 170 µM.
As for `CCCOC(C)c1c(C)c2cc3nc(c(CC(=O)N[C@@H](CC(=O)O)C(=O)O)c4[nH]c(cc5nc(cc1[nH]2)C(C)=C5CC)c(C)c4C(=O)O)[C@@H](CCC(=O)O)[C@@H]3C` (stereo partly drawn) [I2, N-[3-(1-n-propoxyl)ethyl-3-devinylchlorine6-15^2-acyl]-L-aspartic acid], the “Ratio of Darktoxicity and Phototoxicity” value in assay [1] is above 288.46; in assay [2], 125.73. For the same compound, the IC50 in assay [1] (setting [3]) was 1.04 µM; in assay [1] (setting [4]), above 300 µM; in assay [2] (setting [3]) it was 1.48 µM; in assay [2] (setting [4]) it was 186 µM.
For `CCC1=C(C)c2cc3[nH]c(cc4nc(c(CC(=O)N[C@@H](CC(=O)O)C(=O)O)c5[nH]c(cc1n2)c(C)c5C(=O)O)C(CCC(=O)O)C4C)c(C)c3C(C)OCCCCOC` (stereo partly drawn) [I7, N-[3-[1-(4-methoxy)butoxy]ethyl-3-devinylchlorine6-15^2-acyl]-L-aspartic acid], the “Ratio of Darktoxicity and Phototoxicity” value in assay [1] turned out to be 317.88; in assay [2], 159.38. The IC50 in assay [1] (setting [3]) was found to be 0.86 µM; in assay [1] (setting [4]) it was 273 µM; in assay [2] (setting [3]), 1.04 µM; in assay [2] (setting [4]) it was 166 µM.
`CCC1=C(C)c2cc3[nH]c(cc4nc(c(CC(=O)N[C@@H](CCC(=O)O)C(=O)O)c5[nH]c(cc1n2)c(C)c5C(=O)O)[C@@H](CCC(=O)O)[C@@H]4C)c(C)c3C(C)OCCOCCOC` (stereo partly drawn) [I17, N-[3-[1-(2-(2-methoxy)ethyoxyl)ethyoxyl]ethyl-3-devinylchlorine6-15^2-acyl]-L-glutamic acid]: the entries for the “Ratio of Darktoxicity and Phototoxicity” value in assay [1] and in assay [2] were 240.63 and 111.04, respectively. The concentration for half-maximal inhibition (IC50) in assay [1] (setting [3]) was 1.1 µM; in assay [1] (setting [4]), 265 µM; in assay [2] (setting [3]), 1.52 µM; in assay [2] (setting [4]), 169 µM.
`CCCOC(C)c1c(C)c2cc3nc(c(CC(=O)N[C@@H](CCCCN)C(=O)O)c4[nH]c(cc5nc(cc1[nH]2)C(C)=C5CC)c(C)c4C(=O)O)[C@@H](CCC(=O)O)[C@@H]3C` (stereo partly drawn) [I20, N-[3-(1-n-propoxyl)ethyl-3-devinylchlorine6-15^2-acyl]-L-lysine]: the “Ratio of Darktoxicity and Phototoxicity” value in assay [1] is reported as above 225.56; in assay [2], 92.87. Besides, the IC50 in assay [1] (setting [3]) was 1.33 µM; in assay [1] (setting [4]), above 300 µM; in assay [2] (setting [3]) it was 1.75 µM; in assay [2] (setting [4]), 163 µM.
Turning to `CCCCCCOC(C)c1c(C)c2cc3nc(c(CC(=O)N[C@@H](CCC(=O)O)C(=O)O)c4[nH]c(cc5nc(cc1[nH]2)C(C)=C5CC)c(C)c4C(=O)O)C(CCC(=O)O)C3C` (stereo partly drawn) [I12, N-[3-(1-n-hexyloxy)ethyl-3-devinylchlorine6-15^2-acyl]-L-glutamic acid], the “PDT anti-cancer activity (in words)” value in assay [1] (light dose of 8 J/cm^2) and in assay [2] (light dose of 8 J/cm^2) was “best” throughout.
`CCCOC(C)c1c(C)c2cc3nc(c(CC(=O)N[C@@H](CCC(=O)O)C(=O)O)c4[nH]c(cc5nc(cc1[nH]2)C(C)=C5CC)c(C)c4C(=O)O)[C@@H](CCC(=O)O)[C@@H]3C` (stereo partly drawn) [I11, N-[3-(1-n-propoxyl)ethyl-3-devinylchlorine6-15^2-acyl]-L-glutamic acid]: the IC50 came to 1.12 µM in assay [1] (setting [3]), 278 µM in assay [1] (setting [4]) and 173 µM in assay [2] (setting [4]).
With `CCC1=C(C)c2cc3[nH]c(cc4nc(c(CC(=O)N[C@@H](CCCCN)C(=O)O)c5[nH]c(cc1n2)c(C)c5C(=O)O)C(CCC(=O)O)C4C)c(C)c3C(C)OCCCCOC` (stereo partly drawn) [I25, N-[3-[1-(4-methoxy)butoxy]ethyl-3-devinylchlorine6-15^2-acyl]-L-lysine], the “Ratio of Darktoxicity and Phototoxicity” value in assay [1] was found to be 222.06; in assay [2], 140.15. Besides, the half-maximal inhibitory concentration (IC50) amounted to 1.08 µM in assay [1] (setting [3]), 240 µM in assay [1] (setting [4]), 1.16 µM in assay [2] (setting [3]) and 163 µM in assay [2] (setting [4]).
On to `CCC1=C(C)c2cc3[nH]c(cc4nc(c(CC(=O)N[C@@H](CCCCN)C(=O)O)c5[nH]c(cc1n2)c(C)c5C(=O)O)[C@@H](CCC(=O)O)[C@@H]4C)c(C)c3C(C)OCCOC` (stereo partly drawn) [I22, N-[3-[1-(2-methoxy)ethyoxyl]ethyl-3-devinylchlorine6-15^2-acyl]-L-lysine], for which the “Ratio of Darktoxicity and Phototoxicity” value in assay [1] is 175.76; in assay [2] it was 89.24. Also, the IC50 was determined as 1.47 µM in assay [1] (setting [3]), 258 µM in assay [1] (setting [4]), 1.91 µM in assay [2] (setting [3]) and 170 µM in assay [2] (setting [4]).
As to `CCC1=C(C)c2cc3[nH]c(cc4nc(c(CC(=O)N[C@@H](CC(=O)O)C(=O)O)c5[nH]c(cc1n2)c(C)c5C(=O)O)C(CCC(=O)O)C4C)c(C)c3C(C)OC` (stereo partly drawn) [I1, N-[3-(1-methoxy)ethyl-3-devinylchlorine6-15^2-acyl]-L-aspartic acid], the figures for the “Ratio of Darktoxicity and Phototoxicity” value in assay [1] and in assay [2] were above 227.27 and 102.34, respectively. Moreover, the IC50 in assay [1] (setting [3]) was 1.32 µM; in assay [1] (setting [4]), above 300 µM; in assay [2] (setting [3]), 2.06 µM; in assay [2] (setting [4]) it was 211 µM.
In the case of `CCC1=C(C)c2cc3[nH]c(cc4nc(c(CC(=O)N[C@@H](CC(=O)O)C(=O)O)c5[nH]c(cc1n2)c(C)c5C(=O)O)[C@@H](CCC(=O)O)[C@@H]4C)c(C)c3C(C)OCCOCCOC` (stereo partly drawn) [I8, N-[3-[1-(2-(2-methoxy)ethyoxyl)ethyoxyl]ethyl-3-devinylchlorine6-15^2-acyl]-L-aspartic acid], the “Ratio of Darktoxicity and Phototoxicity” value in assay [1] amounted to 283.98; in assay [2], 122.07. In addition, the IC50 in assay [1] (setting [3]) amounted to 1.01 µM; in assay [1] (setting [4]) it was 287 µM; in assay [2] (setting [3]), 1.43 µM; in assay [2] (setting [4]), 175 µM.

The term IC50 denotes the midpoint of a concentration-inhibition curve.

These data come from patent publication US9951081B1, “Chlorin e6 derivative and pharmaceutically acceptable salt thereof and process for preparing and use of the same” (priority 2016, dated 2018).
